# In publication PMC5564622 (Oncotarget, 2017):
# Read-outs that look alike come from different tables or passages of the source.
# Key:
# LoVo cells = assay: cells; type: cell-based, human
# Description: (§1) The human colon cancer cell lines LoVo, HCT8, Caco-2 were obtained from the Cell Bank of the Chinese Academy of Sciences. DOX-selected ABCB1-overexpression LoVo/ADR, HCT8/ADR, Caco-2/ADR cell lines were purchased from Shanghai Yan Sheng Industrial Co., LTD. […] All the DOX-selected ABCB1-overexpression cells were seeded in a medium containing 1μM of DOX to maintain their drug resistance phenotype.
# HCT8 cells = assay: cells; type: cell-based, human
# Description: as §1
# HCT8/pcDNA3.1 cells = assay: cells; type: cell-based, human
# Description: (§2) HCT8/pcDNA3.1 and HCT8/ABCB1 cells were established by transfecting HCT8 with empty pcDNA3.1 or vector containing the full length ABCB1, and were cultured in medium with 2 mg/ml G418.
# [1] = test system: LoVo/ADR cells (ABCB1-overexpressing)
# Description: as §1
# [2] = test system: HCT8/ADR cells (ABCB1-overexpressing)
# Description: as §1
# [3] = test system: HCT8/ABCB1 cells (ABCB1-transfected)
# Description: as §2
# [4] = test system: LoVo/ADR, HCT8/ADR, HCT8/ABCB1 and Caco-2/ADR cells and parental cells; assay: CCK-8 cytotoxicity of BU (non-toxic concentrations); type: cell-based, human; details: MDR and parental cells
# [5] = Toxicity analysis in xenograft mice; type: in vivo, athymic nude mice (BALB/c-nu/nu)
# Description: Normal tissues (heart, liver, lung, spleen, kidney, intestine) were harvested for H&E histology studies. Venous blood samples were collected in EDTA-coated tubes for hematology studies. Samples were analyzed for white blood cells (WBC), red blood cells (RBC), platelets (PLT), aspartate aminotransferase (AST), alanine aminotransferase (ALT) and blood urea nitrogen (BUN) in the clinical laboratory at our hospital.
# MDR in colon cancer = assay: Preliminary experiment on Chansu ingredients and MDR; type: cell-based; details: six active ingredients of Chansu
# HCT8/ADR xenografts = assay: HCT8/ADR nude mouse xenograft model; details: for tumor size versus saline: q3d×5, alone
# [6] = test system: LoVo/ADR cells (ABCB1-overexpressing); assay: cells; details: Homo sapiens
# Description: as §1
# [7] = test system: HCT8/ADR cells (ABCB1-overexpressing); assay: cells; details: Homo sapiens
# Description: as §1
# [8] = test system: HCT8/ABCB1 cells (ABCB1-transfected); assay: cells; details: Homo sapiens
# Description: as §2
# ABCB1 = assay: ABCB1-mediated drug transport assay (Caco-2 monolayer); details: human
# Description: Caco-2 cells were seeded on a Costar 12-well Transwell Permeable Supports plates (0.4 μm pore size, 1.13 cm^2 of growth area, 12 mm diameter) at a density of 5.0×10^4cells/cm^2. Replaced the medium every other day and incubate plates at 37°C for 21 days. Transepithelial electrical resistance (TEER) and Lucifer yellow permeability (LY%) was measured to evaluate the integrity of the monolayer. […] Cells were washed 3 times with HBSS buffer and preincubated for 15 min. Test drugs were diluted in HBSS with 0.5 ml added to the apical side (A) or 1.5 ml to the basolateral side (B). […] Analyte concentrations were determined by Thermo Varioskan Flash.
# The apparent permeability coefficient (Papp) was determined for both A to B and B to A directions by the following formula: Papp=dC/dt×V/AC0 in which A is the area of filter membrane, C0 represents the initial concentration of drug, dC/dt is the change of concentration of drug in the period of incubation time, and V is the volume of the receiver chamber. The efflux ratio (ER) was calculated from: ER=Papp(B to A)/Papp (A to B)
# [9] = Homo sapiens, HCT-8, 48 h, read-out: IC50 of DOX
# [10] = HCT-8, 48 h, read-out: IC50 of DOX
# [11] = Homo sapiens, HCT-8, read-out: IC50 of MIT
molecule,measurement,setting,value
"5(6)-carboxy-2′,7′-dichlorofluorescein [CDCF]",IC50,"LoVo cells; CDCF alone, read-out: IC50 of CDCF",1020 ± 110 µM
same,IC50,"HCT8 cells; HCT8, CDCF alone, read-out: IC50 of CDCF",700 ± 100 µM
same,IC50,"HCT8/pcDNA3.1 cells; HCT8/pcDNA3.1, CDCF alone, read-out: IC50 of CDCF",910 ± 180 µM
same,IC50,"[1]; read-out: IC50 of CDCF, LoVo/ADR, CDCF alone",1130 ± 50 µM
same,IC50,"[2]; read-out: IC50 of CDCF, HCT8/ADR, CDCF alone",960 ± 160 µM
same,IC50,"[3]; read-out: IC50 of CDCF, HCT8/ABCB1, CDCF alone",1080 ± 140 µM
"C[C@]12CC[C@H](O)C[C@H]1CC[C@@H]1[C@@H]2CC[C@]2(C)[C@@H](c3ccc(=O)oc3)CC[C@]12O [BU, Bufalin]","non-toxic concentration (survival rate higher than 80%), maximum for reversal assays",[4],up to 20 nM
same,toxicity on mice,[5]; BU 0.1mg/kg,did not induce any toxicity
same,effect on MDR,MDR in colon cancer,could effectively reverse MDR
same,tumor size versus saline,"HCT8/ADR xenografts; BU 0.1 mg/kg, i.p.",No significant difference
same,ABCB1 expression in tumor tissue (IHC),"HCT8/ADR xenografts; HCT8/ADR xenografts, BU 0.1 mg/kg",inhibit ABCB1 expression in vivo
"COc1cccc2c1C(=O)c1c(O)c3c(c(O)c1C2=O)C[C@@](O)(C(=O)CO)C[C@@H]3O[C@H]1C[C@H](N)[C@H](O)[C@H](C)O1 [DOX, doxorubicin]",fold-reversal of MDR,LoVo cells; DOX alone (reference),1.00
same,IC50,"LoVo cells; Homo sapiens, 48 h, read-out: IC50 of DOX",1.87 ± 0.15 µM
same,fold-reversal of MDR,"HCT8 cells; HCT8, DOX alone (reference)",1.00
same,IC50,HCT8 cells; [9],0.55 ± 0.14 µM
same,fold-reversal of MDR,"HCT8/pcDNA3.1 cells; HCT8/pcDNA3.1, DOX alone (reference)",1.00
same,IC50,HCT8/pcDNA3.1 cells; [9],0.67 ± 0.12 µM
same,significant toxicity: deaths,"[5]; DOX 0.5 mg/kg and DOX 1.0 mg/kg groups, with weight loss",2 deaths out of 6 mice
same,alanine transaminase (ALT) and aspartate transaminase (AST),"[5]; high concentration DOX (0.5, 1.0 mg/kg)",significantly elevated
same,fold-reversal of MDR,[1],16.28 ± 0.54 (1.00)
same,fold-reversal of MDR,[2],7.20 ± 0.80 (1.00)
same,fold-reversal of MDR,[3],13.35 ± 1.15 (1.00)
same,IC50,"[6]; 48 h, read-out: IC50 of DOX",16.3 ± 0.54 µM
same,IC50,[7]; [10],7.2 ± 0.8 µM
same,IC50,[8]; [10],13.3 ± 1.15 µM
same,tumor size versus saline,"HCT8/ADR xenografts; DOX 0.1 mg/kg, i.p.",No significant difference
same,tumor growth inhibition,"HCT8/ADR xenografts; DOX 0.1, 0.5, 1.0 mg/kg, i.p., q3d×5",inhibit tumor growth with a concentration-dependent pattern
same,"Papp A→B at 120 min, 20 μM",ABCB1,0.68 ± 0.18 ×10⁻⁶ cm/s
same,"Papp B→A at 120 min, 20 μM",ABCB1,3.91 ± 0.68 ×10⁻⁶ cm/s
same,"efflux ratio at 120 min, 20 μM",ABCB1,5.75
"O=C1c2c(O)ccc(O)c2C(=O)c2c(NCCNCCO)ccc(NCCNCCO)c21 [MIT, mitoxantrone]",IC50,"LoVo cells; Homo sapiens, read-out: IC50 of MIT",1.05 ± 0.09 µM
same,IC50,HCT8 cells; [11],0.85 ± 0.15 µM
same,IC50,HCT8/pcDNA3.1 cells; [11],0.88 ± 0.28 µM
same,IC50,[6]; read-out: IC50 of MIT,1.23 ± 0.08 µM
same,IC50,"[7]; HCT-8, read-out: IC50 of MIT",1.02 ± 0.28 µM
same,IC50,"[8]; HCT-8, read-out: IC50 of MIT",1 ± 0.2 µM
CC(=O)O[C@H]1[C@H]2O[C@]23[C@@H]2CC[C@@H]4C[C@@H](O)CC[C@]4(C)[C@H]2CC[C@]3(C)[C@H]1c1ccc(=O)oc1 [cinobufagin],effect on MDR,MDR in colon cancer,could effectively reverse MDR
